# Measurements: the kinase profiling compilation of Christmann-Franck et al. (2016)
# Assays:
# Test in all cases: KINOMEscan competition binding
# Settings in all cases: compound 10.0 µM
# [1] = biological target: OXSR1 (human) (UniProt O95747)
# [2] = test system: EGFR (human), P00533 [746-750 del]
# [3] = test system: PIK3CA (human), P42336 [E545K]
# [4] = biological target: CRK2 (P.falciparum) (UniProt P61075)
# [5] = biological target: MTOR (human) (UniProt P42345)
# [6] = test system: KIT (human), P10721 [V559D/T670I]
# [7] = biological target: PIK3CG (human) (UniProt P48736)
# [8] = biological target: ERBB3 (human) (UniProt P21860)
# [9] = biological target: MAP3K13 (human) (UniProt O43283)
# [10] = biological target: PI4KB (human) (UniProt Q9UBF8)
# [11] = biological target: CDK2 (human) (UniProt P24941)
# [12] = biological target: EPHB6 (human) (UniProt O15197)
# [13] = biological target: NEK3 (human) (UniProt P51956)
# [14] = biological target: HIPK3 (human) (UniProt Q9H422)
# [15] = biological target: GRK7 (human) (UniProt Q8WTQ7)
# [16] = biological target: MAP2K7 (human) (UniProt O14733)
# [17] = test system: EGFR (human), P00533 [P753S; 747-752 del]
# [18] = test system: FLT3 (human), P36888 [K663Q]
# [19] = biological target: RPS6KB1 (human) (UniProt P23443)
# [20] = biological target: DYRK2 (human) (UniProt Q92630)
# [21] = biological target: TIE1 (human) (UniProt P35590)
# [22] = biological target: EIF2AK1 (human) (UniProt Q9BQI3)
# [23] = test system: PIK3CA (human), P42336 [I800L]
# [24] = biological target: HIPK4 (human) (UniProt Q8NE63)
# [25] = biological target: ERN1 (human) (UniProt O75460)
# [26] = biological target: ROCK1 (human) (UniProt Q13464)
# [27] = biological target: SGK3 (human) (UniProt Q96BR1)
# [28] = biological target: TBK1 (human) (UniProt Q9UHD2)
# [29] = biological target: MAP3K2 (human) (UniProt Q9Y2U5)
# [30] = biological target: SBK1 (human) (UniProt Q52WX2)
# [31] = biological target: CSNK1A1 (human) (UniProt P48729)
# [32] = biological target: CDKL1 (human) (UniProt Q00532)
# [33] = biological target: MAP3K15 (human) (UniProt Q6ZN16)
# [34] = biological target: MATK (human) (UniProt P42679)
# [35] = biological target: BRAF (human) (UniProt P15056)
# [36] = test system: ABL1 (human), P00519 [E255K]
# [37] = biological target: MAST1 (human) (UniProt Q9Y2H9)
# [38] = biological target: NEK11 (human) (UniProt Q8NG66)
# [39] = biological target: KIT (human) (UniProt P10721)
# [40] = biological target: LRRK2 (human) (UniProt Q5S007)
# HIPK3 (human), sequence (Q9H422 whole entry, looked up): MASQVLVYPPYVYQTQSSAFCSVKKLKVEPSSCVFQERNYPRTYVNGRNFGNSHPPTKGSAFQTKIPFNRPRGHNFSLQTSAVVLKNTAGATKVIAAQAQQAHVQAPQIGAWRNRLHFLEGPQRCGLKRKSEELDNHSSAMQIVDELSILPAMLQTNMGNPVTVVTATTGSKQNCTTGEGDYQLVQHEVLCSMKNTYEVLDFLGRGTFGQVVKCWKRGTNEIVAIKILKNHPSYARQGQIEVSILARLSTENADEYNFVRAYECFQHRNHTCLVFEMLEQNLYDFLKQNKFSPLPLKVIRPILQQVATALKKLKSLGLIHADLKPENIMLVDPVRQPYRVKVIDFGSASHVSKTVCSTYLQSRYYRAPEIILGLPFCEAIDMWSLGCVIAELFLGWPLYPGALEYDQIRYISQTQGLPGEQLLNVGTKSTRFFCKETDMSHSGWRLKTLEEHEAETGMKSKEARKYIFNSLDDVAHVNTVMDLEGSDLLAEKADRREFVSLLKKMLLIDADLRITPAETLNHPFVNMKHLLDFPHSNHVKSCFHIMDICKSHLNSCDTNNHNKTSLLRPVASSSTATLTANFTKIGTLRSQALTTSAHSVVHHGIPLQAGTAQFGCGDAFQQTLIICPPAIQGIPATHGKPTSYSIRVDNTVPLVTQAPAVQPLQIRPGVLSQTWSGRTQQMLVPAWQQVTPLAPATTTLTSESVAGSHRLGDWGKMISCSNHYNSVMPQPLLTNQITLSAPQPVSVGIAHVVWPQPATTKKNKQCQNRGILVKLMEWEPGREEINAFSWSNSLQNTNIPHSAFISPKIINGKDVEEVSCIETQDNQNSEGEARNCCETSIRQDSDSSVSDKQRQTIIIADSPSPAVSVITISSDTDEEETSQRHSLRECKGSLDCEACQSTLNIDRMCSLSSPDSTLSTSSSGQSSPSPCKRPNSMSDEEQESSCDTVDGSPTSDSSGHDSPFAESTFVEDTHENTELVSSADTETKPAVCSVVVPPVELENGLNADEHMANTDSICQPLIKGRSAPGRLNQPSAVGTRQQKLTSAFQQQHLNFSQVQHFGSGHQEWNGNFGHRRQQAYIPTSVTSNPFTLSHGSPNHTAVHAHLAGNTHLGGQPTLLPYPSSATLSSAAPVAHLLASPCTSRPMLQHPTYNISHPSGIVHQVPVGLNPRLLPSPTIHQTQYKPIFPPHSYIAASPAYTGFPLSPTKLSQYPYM
# MAP3K2 (human), sequence (Q9Y2U5 whole entry, looked up): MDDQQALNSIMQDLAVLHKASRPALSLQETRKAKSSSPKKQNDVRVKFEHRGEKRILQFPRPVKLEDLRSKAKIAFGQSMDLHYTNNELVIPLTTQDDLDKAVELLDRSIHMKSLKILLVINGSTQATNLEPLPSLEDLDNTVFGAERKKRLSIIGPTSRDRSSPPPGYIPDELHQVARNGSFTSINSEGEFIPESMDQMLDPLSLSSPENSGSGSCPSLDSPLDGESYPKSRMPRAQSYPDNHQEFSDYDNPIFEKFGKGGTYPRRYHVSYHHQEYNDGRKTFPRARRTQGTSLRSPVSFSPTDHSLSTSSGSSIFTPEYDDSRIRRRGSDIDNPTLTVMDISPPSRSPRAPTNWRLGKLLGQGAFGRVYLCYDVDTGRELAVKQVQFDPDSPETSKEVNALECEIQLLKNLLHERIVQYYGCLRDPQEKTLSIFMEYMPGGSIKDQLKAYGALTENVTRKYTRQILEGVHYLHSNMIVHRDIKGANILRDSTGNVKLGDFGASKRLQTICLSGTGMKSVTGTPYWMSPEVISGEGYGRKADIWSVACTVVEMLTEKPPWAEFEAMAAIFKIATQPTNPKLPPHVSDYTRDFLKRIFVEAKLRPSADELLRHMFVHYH
# MAP2K7 (human), sequence (O14733 whole entry, looked up): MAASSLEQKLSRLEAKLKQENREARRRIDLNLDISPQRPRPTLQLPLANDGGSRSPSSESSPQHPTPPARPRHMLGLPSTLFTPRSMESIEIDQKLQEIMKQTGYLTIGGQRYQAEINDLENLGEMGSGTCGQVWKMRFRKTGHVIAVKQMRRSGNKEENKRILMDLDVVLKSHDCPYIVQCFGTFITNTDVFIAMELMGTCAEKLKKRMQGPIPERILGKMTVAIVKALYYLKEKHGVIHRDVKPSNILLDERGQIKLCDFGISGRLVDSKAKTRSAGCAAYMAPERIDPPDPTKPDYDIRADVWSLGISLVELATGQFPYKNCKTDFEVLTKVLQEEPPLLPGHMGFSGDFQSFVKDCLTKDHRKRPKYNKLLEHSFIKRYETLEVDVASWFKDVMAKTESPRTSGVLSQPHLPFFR
# MAP3K15 (human), sequence (Q6ZN16 whole entry, looked up): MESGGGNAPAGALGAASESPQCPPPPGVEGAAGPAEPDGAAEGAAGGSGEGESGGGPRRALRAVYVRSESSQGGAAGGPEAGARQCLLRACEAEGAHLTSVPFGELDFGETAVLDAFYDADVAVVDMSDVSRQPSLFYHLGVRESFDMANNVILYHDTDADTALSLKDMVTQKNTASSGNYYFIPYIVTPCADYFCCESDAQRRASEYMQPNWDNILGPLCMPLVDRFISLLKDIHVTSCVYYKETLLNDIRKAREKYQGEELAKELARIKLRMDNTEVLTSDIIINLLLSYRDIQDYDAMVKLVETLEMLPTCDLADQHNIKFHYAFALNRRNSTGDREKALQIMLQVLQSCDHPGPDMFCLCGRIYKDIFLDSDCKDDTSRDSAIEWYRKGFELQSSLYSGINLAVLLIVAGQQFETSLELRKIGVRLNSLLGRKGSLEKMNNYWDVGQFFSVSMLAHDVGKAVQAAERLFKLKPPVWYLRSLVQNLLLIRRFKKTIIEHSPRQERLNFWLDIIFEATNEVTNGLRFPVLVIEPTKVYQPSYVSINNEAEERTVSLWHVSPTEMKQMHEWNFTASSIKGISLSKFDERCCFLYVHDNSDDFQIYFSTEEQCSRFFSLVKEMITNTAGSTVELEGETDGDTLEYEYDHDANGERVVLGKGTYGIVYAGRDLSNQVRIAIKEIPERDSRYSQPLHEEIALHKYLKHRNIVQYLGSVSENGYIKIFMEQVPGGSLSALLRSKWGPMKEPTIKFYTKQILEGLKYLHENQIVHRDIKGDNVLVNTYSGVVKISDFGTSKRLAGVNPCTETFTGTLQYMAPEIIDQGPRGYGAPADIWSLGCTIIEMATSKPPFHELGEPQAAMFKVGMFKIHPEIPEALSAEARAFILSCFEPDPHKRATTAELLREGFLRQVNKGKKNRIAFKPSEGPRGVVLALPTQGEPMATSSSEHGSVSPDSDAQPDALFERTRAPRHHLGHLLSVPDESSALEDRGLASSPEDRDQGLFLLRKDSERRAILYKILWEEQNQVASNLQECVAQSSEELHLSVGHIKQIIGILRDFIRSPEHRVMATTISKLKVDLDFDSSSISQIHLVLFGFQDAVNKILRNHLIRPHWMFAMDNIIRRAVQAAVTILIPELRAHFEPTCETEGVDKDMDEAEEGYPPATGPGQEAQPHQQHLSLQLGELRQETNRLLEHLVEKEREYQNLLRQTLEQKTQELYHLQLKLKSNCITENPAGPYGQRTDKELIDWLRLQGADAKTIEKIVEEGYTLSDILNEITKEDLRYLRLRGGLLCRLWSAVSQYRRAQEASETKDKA
# NEK11 (human), sequence (Q8NG66 whole entry, looked up): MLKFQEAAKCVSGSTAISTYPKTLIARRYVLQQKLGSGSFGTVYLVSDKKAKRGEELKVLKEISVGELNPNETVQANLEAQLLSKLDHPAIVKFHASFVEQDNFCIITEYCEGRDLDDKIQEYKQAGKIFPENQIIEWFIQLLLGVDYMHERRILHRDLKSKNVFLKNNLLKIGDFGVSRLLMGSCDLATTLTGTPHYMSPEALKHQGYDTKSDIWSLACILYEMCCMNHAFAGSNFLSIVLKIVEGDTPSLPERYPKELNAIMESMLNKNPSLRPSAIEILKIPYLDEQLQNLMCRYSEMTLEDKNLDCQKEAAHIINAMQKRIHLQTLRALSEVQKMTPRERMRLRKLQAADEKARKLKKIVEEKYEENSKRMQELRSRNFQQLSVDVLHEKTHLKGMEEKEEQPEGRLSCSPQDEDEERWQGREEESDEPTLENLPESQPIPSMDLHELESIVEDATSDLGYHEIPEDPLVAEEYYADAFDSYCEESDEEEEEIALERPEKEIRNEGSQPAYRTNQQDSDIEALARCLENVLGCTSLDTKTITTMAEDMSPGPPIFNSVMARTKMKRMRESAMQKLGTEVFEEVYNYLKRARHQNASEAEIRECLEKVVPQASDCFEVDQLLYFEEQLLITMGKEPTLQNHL
# TBK1 (human), sequence (Q9UHD2 whole entry, looked up): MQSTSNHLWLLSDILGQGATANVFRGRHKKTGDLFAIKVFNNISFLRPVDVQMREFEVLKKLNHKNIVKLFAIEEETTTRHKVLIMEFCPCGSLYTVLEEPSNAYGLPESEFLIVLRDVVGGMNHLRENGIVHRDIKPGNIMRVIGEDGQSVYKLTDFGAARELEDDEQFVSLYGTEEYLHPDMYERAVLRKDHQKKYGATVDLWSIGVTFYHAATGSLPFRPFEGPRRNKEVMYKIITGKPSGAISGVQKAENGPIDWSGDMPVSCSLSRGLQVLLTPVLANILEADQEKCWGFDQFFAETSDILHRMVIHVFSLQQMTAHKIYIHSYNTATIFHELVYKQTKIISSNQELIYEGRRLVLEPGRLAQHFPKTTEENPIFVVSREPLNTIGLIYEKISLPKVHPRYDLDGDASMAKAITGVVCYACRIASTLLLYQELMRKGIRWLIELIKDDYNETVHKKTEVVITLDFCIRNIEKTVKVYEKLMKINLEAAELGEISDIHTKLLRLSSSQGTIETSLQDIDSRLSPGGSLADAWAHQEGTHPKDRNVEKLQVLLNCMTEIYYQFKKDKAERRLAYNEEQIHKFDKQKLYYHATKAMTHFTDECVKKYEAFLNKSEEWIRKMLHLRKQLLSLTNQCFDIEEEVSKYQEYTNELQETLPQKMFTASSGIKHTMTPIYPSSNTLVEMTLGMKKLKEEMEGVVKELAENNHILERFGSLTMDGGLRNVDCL
smiles,measurement,setting,value
Cc1ccc(NC(=O)c2cccc(C(C)(C)C#N)c2)cc1Nc1ccc2ncn(C)c(=O)c2c1,"kinase still bound, per cent of control",[1],96%
same,"kinase still bound, per cent of control",[2],15%
same,"kinase still bound, per cent of control",[3],100%
same,"kinase still bound, per cent of control",[4],94%
same,"kinase still bound, per cent of control",[5],100%
same,"kinase still bound, per cent of control",[6],0.35%
same,"kinase still bound, per cent of control",[7],99%
same,"kinase still bound, per cent of control",[8],100%
same,"kinase still bound, per cent of control",[9],100%
same,"kinase still bound, per cent of control",[10],82%
same,"kinase still bound, per cent of control",[11],100%
same,"kinase still bound, per cent of control",[12],2.4%
same,"kinase still bound, per cent of control",[13],57%
same,"kinase still bound, per cent of control",[14],86%
same,"kinase still bound, per cent of control",[15],91%
same,"kinase still bound, per cent of control",[16],93%
same,"kinase still bound, per cent of control",[17],19%
same,"kinase still bound, per cent of control",[18],22%
same,"kinase still bound, per cent of control",[19],100%
same,"kinase still bound, per cent of control",[20],100%
same,"kinase still bound, per cent of control",[21],11%
same,"kinase still bound, per cent of control",[22],84%
same,"kinase still bound, per cent of control",[23],100%
same,"kinase still bound, per cent of control",[24],92%
same,"kinase still bound, per cent of control",[25],86%
same,"kinase still bound, per cent of control",[26],92%
same,"kinase still bound, per cent of control",[27],100%
same,"kinase still bound, per cent of control",[28],100%
same,"kinase still bound, per cent of control",[29],88%
same,"kinase still bound, per cent of control",[30],79%
same,"kinase still bound, per cent of control",[31],100%
same,"kinase still bound, per cent of control",[32],100%
same,"kinase still bound, per cent of control",[33],100%
same,"kinase still bound, per cent of control",[34],100%
same,"kinase still bound, per cent of control",[35],0%
same,"kinase still bound, per cent of control",[36],3.4%
same,"kinase still bound, per cent of control",[37],100%
same,"kinase still bound, per cent of control",[38],94%
same,"kinase still bound, per cent of control",[39],0%
same,"kinase still bound, per cent of control",[40],32%
